Source: ChEMBL document CHEMBL1154040, “Synthesis and evaluation of novel F-18 labeled fluoroarylvaline derivatives: potential PET imaging agents for tumor detection” (Bioorg Med Chem Lett, 2009)

These molecules were tested on Brain (assay: Biodistribution in S180 tumor-bearing KM mouse brain assessed per gram of tissue at 240 to 370 kBq, iv after 15 mins). Settings: in vivo, 0.25 h.
Type: ADME, organism-based

Drug uptake | SMILES
2.63 %ID | OC[C@H]1O[C@@H](O)[C@H]([18F])[C@@H](O)[C@@H]1O [FLUDEOXYGLUCOSE-F18]

These molecules were tested on Brain (assay: Biodistribution in S180 tumor-bearing KM mouse brain assessed per gram of tissue at 240 to 370 kBq, iv after 5 mins). Settings: in vivo.
Type: ADME, organism-based

Drug uptake | SMILES
2.4 %ID | OC[C@H]1O[C@@H](O)[C@H]([18F])[C@@H](O)[C@@H]1O [FLUDEOXYGLUCOSE-F18]

These molecules were tested on Spleen (assay: Biodistribution in S180 tumor-bearing KM mouse spleen assessed per gram of tissue at 240 to 370 kBq, iv after 60 mins). Settings: in vivo, 1 h.
Type: ADME, organism-based

Drug uptake | SMILES
0.83 %ID | OC[C@H]1O[C@@H](O)[C@H]([18F])[C@@H](O)[C@@H]1O [FLUDEOXYGLUCOSE-F18]

These molecules were tested on Spleen (assay: Biodistribution in S180 tumor-bearing KM mouse spleen assessed per gram of tissue at 240 to 370 kBq, iv after 30 mins). Settings: in vivo, 0.5 h.
Type: ADME, organism-based

Drug uptake | SMILES
0.9 %ID | OC[C@H]1O[C@@H](O)[C@H]([18F])[C@@H](O)[C@@H]1O [FLUDEOXYGLUCOSE-F18]

The molecules below were run on Spleen (assay: Biodistribution in S180 tumor-bearing KM mouse spleen assessed per gram of tissue at 240 to 370 kBq, iv after 15 mins). Settings: in vivo, 0.25 h.
Type: ADME, organism-based

Drug uptake | SMILES
0.95 %ID | OC[C@H]1O[C@@H](O)[C@H]([18F])[C@@H](O)[C@@H]1O [FLUDEOXYGLUCOSE-F18]

Each molecule was assayed on Spleen (assay: Biodistribution in S180 tumor-bearing KM mouse spleen assessed per gram of tissue at 240 to 370 kBq, iv after 5 mins). Settings: in vivo.
Type: ADME, organism-based

Drug uptake | SMILES
1.31 %ID | OC[C@H]1O[C@@H](O)[C@H]([18F])[C@@H](O)[C@@H]1O [FLUDEOXYGLUCOSE-F18]

These molecules were tested on Muscle tissue (assay: Biodistribution in S180 tumor-bearing KM mouse muscle assessed per gram of tissue at 240 to 370 kBq, iv after 60 mins). Settings: in vivo, 1 h.
Type: ADME, organism-based

Drug uptake | SMILES
0.97 %ID | OC[C@H]1O[C@@H](O)[C@H]([18F])[C@@H](O)[C@@H]1O [FLUDEOXYGLUCOSE-F18]

What follows are molecules tested on Muscle tissue (assay: Biodistribution in S180 tumor-bearing KM mouse muscle assessed per gram of tissue at 240 to 370 kBq, iv after 5 mins). Settings: in vivo.
Type: ADME, organism-based

Drug uptake | SMILES
1.56 %ID | OC[C@H]1O[C@@H](O)[C@H]([18F])[C@@H](O)[C@@H]1O [FLUDEOXYGLUCOSE-F18]

Each molecule was assayed on Kidney (assay: Biodistribution in S180 tumor-bearing KM mouse kidney assessed per gram of tissue at 240 to 370 kBq, iv after 120 mins). Settings: in vivo, 2 h.
Type: ADME, organism-based

Drug uptake | SMILES
0.25 %ID | OC[C@H]1O[C@@H](O)[C@H]([18F])[C@@H](O)[C@@H]1O [FLUDEOXYGLUCOSE-F18]

What follows are molecules tested on Kidney (assay: Biodistribution in S180 tumor-bearing KM mouse kidney assessed per gram of tissue at 240 to 370 kBq, iv after 60 mins). Settings: in vivo, 1 h.
Type: ADME, organism-based

Drug uptake | SMILES
0.54 %ID | OC[C@H]1O[C@@H](O)[C@H]([18F])[C@@H](O)[C@@H]1O [FLUDEOXYGLUCOSE-F18]

The molecules below were run on Kidney (assay: Biodistribution in S180 tumor-bearing KM mouse kidney assessed per gram of tissue at 240 to 370 kBq, iv after 30 mins). Settings: in vivo, 0.5 h.
Type: ADME, organism-based

Drug uptake | SMILES
0.61 %ID | OC[C@H]1O[C@@H](O)[C@H]([18F])[C@@H](O)[C@@H]1O [FLUDEOXYGLUCOSE-F18]

What follows are molecules tested on Kidney (assay: Biodistribution in S180 tumor-bearing KM mouse kidney assessed per gram of tissue at 240 to 370 kBq, iv after 15 mins). Settings: in vivo, 0.25 h.
Type: ADME, organism-based

Drug uptake | SMILES
1.04 %ID | OC[C@H]1O[C@@H](O)[C@H]([18F])[C@@H](O)[C@@H]1O [FLUDEOXYGLUCOSE-F18]

The molecules below were run on Kidney (assay: Biodistribution in S180 tumor-bearing KM mouse kidney assessed per gram of tissue at 240 to 370 kBq, iv after 5 mins). Settings: in vivo.
Type: ADME, organism-based

Drug uptake | SMILES
2.16 %ID | OC[C@H]1O[C@@H](O)[C@H]([18F])[C@@H](O)[C@@H]1O [FLUDEOXYGLUCOSE-F18]

The molecules below were run on Lung (assay: Biodistribution in S180 tumor-bearing KM mouse lung assessed per gram of tissue at 240 to 370 kBq, iv after 120 mins). Settings: in vivo, 2 h.
Type: ADME, organism-based

Drug uptake | SMILES
0.52 %ID | OC[C@H]1O[C@@H](O)[C@H]([18F])[C@@H](O)[C@@H]1O [FLUDEOXYGLUCOSE-F18]

Each molecule was assayed on Lung (assay: Biodistribution in S180 tumor-bearing KM mouse lung assessed per gram of tissue at 240 to 370 kBq, iv after 60 mins). Settings: in vivo, 1 h.
Type: ADME, organism-based

Drug uptake | SMILES
0.57 %ID | OC[C@H]1O[C@@H](O)[C@H]([18F])[C@@H](O)[C@@H]1O [FLUDEOXYGLUCOSE-F18]

Each molecule was assayed on Lung (assay: Biodistribution in S180 tumor-bearing KM mouse lung assessed per gram of tissue at 240 to 370 kBq, iv after 30 mins). Settings: in vivo, 0.5 h.
Type: ADME, organism-based

Drug uptake | SMILES
0.64 %ID | OC[C@H]1O[C@@H](O)[C@H]([18F])[C@@H](O)[C@@H]1O [FLUDEOXYGLUCOSE-F18]

Each molecule was assayed on Lung (assay: Biodistribution in S180 tumor-bearing KM mouse lung assessed per gram of tissue at 240 to 370 kBq, iv after 15 mins). Settings: in vivo, 0.25 h.
Type: ADME, organism-based

Drug uptake | SMILES
0.77 %ID | OC[C@H]1O[C@@H](O)[C@H]([18F])[C@@H](O)[C@@H]1O [FLUDEOXYGLUCOSE-F18]

What follows are molecules tested on Lung (assay: Biodistribution in S180 tumor-bearing KM mouse lung assessed per gram of tissue at 240 to 370 kBq, iv after 5 mins). Settings: in vivo.
Type: ADME, organism-based

Drug uptake | SMILES
1.52 %ID | OC[C@H]1O[C@@H](O)[C@H]([18F])[C@@H](O)[C@@H]1O [FLUDEOXYGLUCOSE-F18]

These molecules were tested on Liver (assay: Biodistribution in S180 tumor-bearing KM mouse liver assessed per gram of tissue at 240 to 370 kBq, iv after 120 mins). Settings: in vivo, 2 h.
Type: ADME, organism-based

Drug uptake | SMILES
0.2 %ID | OC[C@H]1O[C@@H](O)[C@H]([18F])[C@@H](O)[C@@H]1O [FLUDEOXYGLUCOSE-F18]

These molecules were tested on Liver (assay: Biodistribution in S180 tumor-bearing KM mouse liver assessed per gram of tissue at 240 to 370 kBq, iv after 60 mins). Settings: in vivo, 1 h.
Type: ADME, organism-based

Drug uptake | SMILES
0.22 %ID | OC[C@H]1O[C@@H](O)[C@H]([18F])[C@@H](O)[C@@H]1O [FLUDEOXYGLUCOSE-F18]

What follows are molecules tested on Liver (assay: Biodistribution in S180 tumor-bearing KM mouse liver assessed per gram of tissue at 240 to 370 kBq, iv after 30 mins). Settings: in vivo, 0.5 h.
Type: ADME, organism-based

Drug uptake | SMILES
0.23 %ID | OC[C@H]1O[C@@H](O)[C@H]([18F])[C@@H](O)[C@@H]1O [FLUDEOXYGLUCOSE-F18]
